Experiment [1] has as its system C6. Kind of experiment: Cytotoxicity against rat C6 cells at 50 ug/mL to 2.5 mg/mL after 3 days treated 4 hrs before db-cAMP challenge by MTT assay. The format is functional, cell-based. A general note: Tetrazolium dyes change colour on reduction, which living cells bring about.
Experiment [2] deals with C6. Kind of experiment: Inhibition of tubulin polymerization in rat C6 cells at 50 ug/mL to 2.5 mg/mL after 4 hrs. It counts as cell-based.
Experiment [3] concerns C6. Kind of experiment: Cytotoxicity against rat C6 cells assessed as cell release at 50 ug/mL to 2.5 mg/mL after 5 hrs by MTT assay in absence of db-cAMP. The format is functional, cell-based.
Experiment [4] deals with C6. Kind of experiment: Cytotoxicity against rat C6 cells after 3 days treated 4 hrs before db-cAMP challenge by MTT assay. It counts as functional. The note with it: read-out: LC50 (the source's name).
Experiment [5] can be described thus: Inhibition of tubulin polymerization in rat C6 cells after 4 hrs. The format is cell-based.

Calls of active or inactive are those of the source. The calls are words filed in the database; no cut-off is given here. *1 amine or outer side, *2 acyl side, *3 side chain or, on linkers, in order; H or OH if unused. Where a SMILES comes first, the peptide text is derived from it. Bridges are numbered along the chain shown (N, C = ends). Roman numbers before positions name the chains, in order. [ ]: non-standard residue; d: D form. Actinocin(9to1) = Cc1c2oc3c(C)ccc(C(=O)[*:1])c3nc-2c(C(=O)[*:2])c(N)c1=O; NMeV = CN[C@H](C(=O)O)C(C)C; Sar = CNCC(=O)O

As to `O=NN(CCCl)C(=O)NCCCl`, the outcome in the experiment with C6 [1], in the experiment on C6 [2] and in the experiment on C6 [3] was inactive.
As to `COc1cc([C@@H]2c3cc4c(cc3[C@@H](O[C@@H]3O[C@@H]5CO[C@@H](c6cccs6)O[C@H]5[C@H](O)[C@H]3O)[C@H]3COC(=O)[C@H]23)OCO4)cc(OC)c1O`, the result with C6 [1], with C6 [2] and with C6 [3] was inactive.
Turning to `O=C1c2c(O)ccc(O)c2C(=O)c2c(NCCNCCO)ccc(NCCNCCO)c21`, the outcome with C6 [1], with C6 [2] and in the experiment on C6 [3] was inactive.
For orientation: EC50 means the concentration giving half of the maximal effect. Take `CC[C@]1(O)C[C@H]2CN(CCc3c([nH]c4ccccc34)[C@@](C(=O)OC)(c3cc4c(cc3OC)N(C=O)[C@H]3[C@@](O)(C(=O)OC)[C@H](OC(C)=O)[C@]5(CC)C=CCN6CC[C@]43[C@@H]65)C2)C1` [VINCRISTINE]: the CC50 in the experiment on C6 [4] came to 320 nM. Moreover, in experiment [5], the EC50 amounted to 6200 nM. For the same molecule, the result in the experiment with C6 [3] was inactive.
On to `Clc1ccc(C(c2ccccc2Cl)C(Cl)Cl)cc1` (stereo not drawn), for which the outcome in the experiment on C6 [1], with C6 [2] and in the experiment with C6 [3] was inactive.
For the molecule `CO[C@@]12[C@H](COC(N)=O)C3=C(C(=O)C(C)=C(N)C3=O)N1C[C@@H]1N[C@@H]12`, the result in the experiment with C6 [1], in the experiment on C6 [2] and in the experiment with C6 [3] was inactive.
As for `COc1cc2c(c(OC)c1OC)-c1ccc(OC)c(=O)cc1[C@@H](NC(C)=O)CC2` [COLCHICINE], the CC50 in the experiment on C6 [4] came out at 200 nM. This molecule returned a half-maximal effective concentration (EC50) in experiment [5] of 100 nM. The outcome in the experiment on C6 [3] was inactive.
The matching figures for `C=CC[C@@H](CC/C(C)=C/C=C/CC/C=C\[C@@H]1CSC([C@@H]2C[C@@H]2C)=N1)OC` [CURACIN A]: 11 nM, 510 nM and “inactive”.
With `COc1cccc2c1C(=O)c1c(O)c3c(c(O)c1C2=O)C[C@@](O)(C(=O)CO)C[C@@H]3O[C@H]1C[C@H](N)[C@H](O)[C@H](C)O1`, the result with C6 [1], in the experiment on C6 [2] and in the experiment with C6 [3] was inactive.
On to `CCn1cc(C(=O)O)c(=O)c2ccc(C)nc21`, for which the result in the experiment with C6 [1], in the experiment on C6 [2] and in the experiment on C6 [3] was inactive.
On to `COc1cc([C@@H]2c3cc4c(cc3[C@@H](O[C@@H]3O[C@@H]5CO[C@@H](C)O[C@H]5[C@H](O)[C@H]3O)[C@H]3COC(=O)[C@H]23)OCO4)cc(OC)c1O` [ETOPOSIDE], for which, in the experiment on C6 [4], the CC50 turned out to be 120 nM. Further, the EC50 in experiment [5] stood at 680000 nM. Besides, in the experiment with C6 [3], the result was inactive.
Regarding `N[C@@H](Cc1ccc(N(CCCl)CCCl)cc1)C(=O)O`, the outcome with C6 [1], in the experiment on C6 [2] and in the experiment with C6 [3] was inactive.
Consider `Cc1c2oc3c(C)ccc(C(=O)N[C@@H]4C(=O)N[C@H](C(C)C)C(=O)N5CCC[C@H]5C(=O)N(C)CC(=O)N(C)[C@@H](C(C)C)C(=O)O[C@@H]4C)c3nc-2c(C(=O)N[C@@H]2C(=O)N[C@H](C(C)C)C(=O)N3CCC[C@H]3C(=O)N(C)CC(=O)N(C)[C@@H](C(C)C)C(=O)O[C@@H]2C)c(N)c1=O` (I: T[dV]P[Sar][NMeV] / II: T[dV]P[Sar][NMeV]; ester I:1-I:C, II:1-II:C; linker I:N-II:N via Actinocin(9to1)), for which the result with C6 [1], in the experiment with C6 [2] and in the experiment on C6 [3] was inactive.
`COc1cccc2c1C(=O)c1c(O)c3c(c(O)c1C2=O)C[C@@](O)(C(C)=O)C[C@@H]3O[C@H]1C[C@H](N)[C@H](O)[C@H](C)O1`: the result with C6 [1], in the experiment with C6 [2] and with C6 [3] was inactive.
Consider `CC(=O)O[C@H]1C(=O)[C@@]2(C)[C@H]([C@H](OC(=O)c3ccccc3)[C@]3(O)C[C@H](OC(=O)[C@H](O)[C@@H](NC(=O)c4ccccc4)c4ccccc4)C(C)=C1C3(C)C)[C@]1(OC(C)=O)CO[C@@H]1C[C@@H]2O` [PACLITAXEL], for which the CC50 in the experiment with C6 [4] was 23 nM.
`C[C@@H]1C[C@@H]([C@H](O)CC2CC(=O)NC(=O)C2)C(=O)[C@@H](C)C1`: the result with C6 [1], in the experiment on C6 [2] and in the experiment with C6 [3] was inactive.
In the case of `CN(N=O)C(=O)N[C@@H](C=O)[C@@H](O)[C@H](O)[C@H](O)CO`, the result with C6 [1], in the experiment with C6 [2] and in the experiment on C6 [3] was inactive.
In the case of `CC[C@]1(O)C[C@@H]2CN(CCc3c([nH]c4ccccc34)[C@@](C(=O)OC)(c3cc4c(cc3OC)N(C)[C@H]3[C@@](O)(C(=O)OC)[C@H](OC(C)=O)[C@]5(CC)C=CCN6CC[C@]43[C@@H]65)C2)C1` [VINBLASTINE], in the experiment with C6 [4], the CC50 was determined as 66 nM. Also, the EC50 in experiment [5] was found to be 8200 nM. Also, in the experiment with C6 [3], the outcome was inactive.
As for `CO[C@@H]1[C@@H](OC(N)=O)[C@@H](O)[C@H](Oc2ccc3c(O)c(NC(=O)c4ccc(O)c(CC=C(C)C)c4)c(=O)oc3c2C)OC1(C)C`, the outcome in the experiment with C6 [1], in the experiment with C6 [2] and in the experiment on C6 [3] was inactive.
Take `C=C1[C@@H](C)[C@H]2[C@H](Cc3ccccc3)NC(=O)[C@]23OC(=O)/C=C/[C@H](O)CCC[C@@H](C)C/C=C/[C@H]3[C@@H]1O`: the result in the experiment on C6 [1], in the experiment with C6 [2] and in the experiment on C6 [3] was inactive.

For the origin of these results see ChEMBL document CHEMBL1158219, “Cell-based screen for identification of inhibitors of tubulin polymerization” (J Nat Prod, 1996).
